Reference: patent US20260058014A1, “CHARACTERIZATION OF TUMOR HET[…] A […]” (Foundation Medicine, Inc., priority 2022, published 2026)

System: EGFR driver alteration-positive NSCLC patients
Assay: Progression free survival from start of 1st line Osimertinib in a real-world clinico-genomic NSCLC cohort stratified by tumor heterogeneity score
Type: in vivo, human
From the text: Starting with a patient cohort of 15,035 patients, the data was filtered (for biopsy type and bait set). The data was then filtered to exclude data for patients for whom a computational tumor purity was less than or equal to 20% or for whom a computational tumor purity value was missing. The remaining patient data was divided according to whether the samples were early-stage specimens, late-stage specimens, or of ambiguous origin. For the late-stage specimens, data for patients who were first diagnosed prior to Jan. […] Finally, data was selected for N=135 1st line Osimertinib-treated, EGFR driver alteration-positive NSCLC patients for whom tumor samples were sequenced at most a year prior to start of therapy.
The group of 135 patients were then divided into three tertiles with 45 patients each. […] For patients without a subsequent line of therapy, the event date was the earliest progression event that occurred more than 14 days after the index date, or the date of death. • Censor date: patients with a subsequent line of therapy were censored at their last clinic note date if it occurred between the index date and the start date of the subsequent line of therapy plus 14 days. […]

C=CC(=O)Nc1cc(Nc2nccc(-c3cn(C)c4ccccc34)n2)c(OC)cc1N(C)CCN(C)C [Osimertinib]
mPFS (Score category High, EGFR CCF category Low, N=12): 6.54
mPFS (Score category Low, EGFR CCF category High, N=39): 16.01
